The test system of assay [1] is SIV pseudotyped with the SARS-CoV-2 spike protein (Alpha). The note with it: SIV pseudotyped with the spike protein (Alpha, 48 h).
Assay [2] deals with ACE2–RBD interaction (Omicron variant RBD-Fc / His-tagged hACE2). The format is biochemical, SARS-CoV-2. To be noted: read-out: Inhibition of ACE2–RBD Interaction.
The subject of assay [3] is SIV pseudotyped with the SARS-CoV-2 spike protein (wt). To be noted: SIV pseudotyped with the spike protein (wt, 48 h).
In assay [4] the test system is SIV pseudotyped with the SARS-CoV-2 spike protein (Beta). To be noted: SIV pseudotyped with the spike protein (Beta, 48 h).
The test system of assay [5] is SIV pseudotyped with the SARS-CoV-2 spike protein (Omicron). To be noted: SIV pseudotyped with the spike protein (Omicron, 48 h).
Assay [6] has as its system SIV pseudotyped with the SARS-CoV-2 spike protein (Delta). To be noted: SIV pseudotyped with the spike protein (Delta, 48 h).
For assay [7], the system named is pseudovirus with wt SARS-CoV-2 spike carrying E484K + N501Y.
Assay [8] has as its system pseudovirus with wt SARS-CoV-2 spike carrying K417N.

As to `CC[C@H](C)[C@H](NC(=O)[C@H](CC(C)C)NC(=O)[C@H](CC(=O)O)NC(=O)[C@H](CO)NC(=O)[C@@H](NC(=O)[C@H](CCCNC(=N)N)NC(=O)[C@H](CCSC)NC(=O)[C@H](CO)NC(=O)[C@H](C)NC(=O)[C@H](CCC(=O)O)NC(=O)[C@H](C)NC(=O)[C@H](Cc1c[nH]cn1)NC(=O)CNC(=O)[C@H](CC(C)C)NC(=O)[C@H](CCC(=O)O)NC(=O)[C@H](CC(=O)O)NC(=O)[C@H](CC(C)C)NC(=O)[C@H](CC(C)C)NC(=O)[C@H](CCCNC(=N)N)NC(=O)[C@H](CCSC)NC(=O)[C@@H](NC(=O)[C@H](CCC(=O)O)NC(=O)[C@H](Cc1ccc(O)cc1)NC(=O)[C@@H](NC(=O)[C@H](CCCCN)NC(=O)[C@H](CCC(N)=O)NC(=O)[C@H](CC(C)C)NC(=O)[C@@H](NC(=O)[C@H](Cc1c[nH]c2ccccc12)NC(=O)[C@H](CCC(=O)O)NC(=O)[C@H](CCCCN)NC(=O)[C@H](CC(=O)O)NC(=O)COCCOCCNC(=O)CCCC[C@@H]1SC[C@@H]2NC(=O)N[C@@H]21)[C@@H](C)CC)[C@@H](C)CC)[C@@H](C)CC)C(C)C)C(=O)N[C@@H](Cc1ccc(O)cc1)C(=O)N[C@@H](CCC(=O)O)C(=O)N[C@@H](Cc1ccccc1)C(=O)N[C@@H](CCSC)C(=O)N[C@@H](CCCCN)C(=O)N[C@@H](CCCCN)C(=O)NCC(N)=O` [LW25.1], the IC50 in assay [1] is 8.38 ± 3.31 nM; in assay [2], […]; in assay [3], 1.7 ± 0.11 nM; in assay [4] it was more than 500 nM; in assay [5] it was more than 500 nM; in assay [6] it was 0.71 ± 0.23 nM.
With `CC[C@H](C)[C@H](NC(=O)[C@H](CC(C)C)NC(=O)[C@H](CC(=O)O)NC(=O)[C@H](CO)NC(=O)[C@@H](NC(=O)[C@H](CCCNC(=N)N)NC(=O)[C@H](CCSC)NC(=O)[C@H](CO)NC(=O)[C@H](C)NC(=O)[C@H](CCC(=O)O)NC(=O)[C@H](C)NC(=O)[C@H](Cc1c[nH]cn1)NC(=O)CNC(=O)[C@H](CC(C)C)NC(=O)[C@H](CCC(=O)O)NC(=O)[C@H](CC(=O)O)NC(=O)[C@H](CC(C)C)NC(=O)[C@H](CC(C)C)NC(=O)[C@H](CCCNC(=N)N)NC(=O)[C@H](CCSC)NC(=O)[C@@H](NC(=O)[C@H](CCC(=O)O)NC(=O)[C@H](Cc1ccc(O)cc1)NC(=O)[C@@H](NC(=O)[C@H](CCCCN)NC(=O)[C@H](CCC(N)=O)NC(=O)[C@H](CC(C)C)NC(=O)[C@@H](NC(=O)[C@H](Cc1c[nH]c2ccccc12)NC(=O)[C@H](CCC(=O)O)NC(=O)[C@H](CCCCN)NC(=O)[C@H](CC(=O)O)NC(=O)COCCOCCNC(=O)CCCC[C@@H]1SC[C@@H]2NC(=O)N[C@@H]21)[C@@H](C)CC)[C@@H](C)CC)[C@@H](C)CC)C(C)C)C(=O)N[C@@H](Cc1ccc(O)cc1)C(=O)N[C@@H](CCC(=O)O)C(=O)N[C@@H](Cc1ccccc1)C(=O)N[C@@H](CCSC)C(=O)N[C@@H](CCCCN)C(N)=O` [LW32.2], the IC50 in assay [1] was 6.15 ± 5.96 nM; in assay [2], […]; in assay [3] it was 0.93 ± 0.24 nM; in assay [4] it was more than 500 nM; in assay [5] it was more than 500 nM; in assay [6] it was 1.54 ± 0.23 nM. Moreover, the “Reduction in inhibitory activity (virus neutralization) by combination of E484K and N501N” value in assay [7] is reported as “nine”. Besides, in assay [8], the “Decrease of susceptibility of the virus to inhibition by mutation K417N, factor” value stood at 25.
Consider `CC[C@H](C)[C@@H]1NC(=O)[C@H](CC(C)C)NC(=O)[C@H](CC(=O)O)NC(=O)[C@H](CO)NC(=O)[C@H](C(C)C)NC(=O)[C@H](CCCNC(=N)N)NC(=O)[C@H](CCSC)NC(=O)[C@H](CO)NC(=O)[C@H](C)NC(=O)[C@H](CCC(=O)O)NC(=O)[C@H](C)NC(=O)[C@H](Cc2c[nH]cn2)NC(=O)CNC(=O)[C@H](CC(C)C)NC(=O)[C@H](CCC(=O)O)NC(=O)[C@H](CC(=O)O)NC(=O)[C@H](CC(C)C)NC(=O)[C@H](CC(C)C)NC(=O)[C@H](CCCNC(=N)N)NC(=O)[C@H](CCSC)NC(=O)[C@H]([C@@H](C)CC)NC(=O)[C@H](CCC(=O)O)NC(=O)[C@H](Cc2ccc(O)cc2)NC(=O)[C@H]([C@@H](C)CC)NC(=O)[C@H](CCCCN)NC(=O)[C@H](CCC(N)=O)NC(=O)[C@H](CC(C)C)NC(=O)[C@H]([C@@H](C)CC)NC(=O)[C@H](Cc2c[nH]c3ccccc23)NC(=O)[C@H](CCC(=O)O)NC(=O)[C@@H](NC(=O)COCCOCCNC(=O)CCCC[C@@H]2SC[C@@H]3NC(=O)N[C@@H]32)CSSC[C@@H](C(N)=O)NC(=O)[C@H](CCCCN)NC(=O)[C@H](CCCCN)NC(=O)[C@H](CCSC)NC(=O)[C@H](Cc2ccccc2)NC(=O)[C@H](CCC(=O)O)NC(=O)[C@H](Cc2ccc(O)cc2)NC1=O` [LW25.13], for which the IC50 was 1.35 ± 0.08 nM in assay [1]; […] in assay [2]; 0.63 ± 0.24 nM in assay [3]; more than 500 nM in assay [4]; more than 500 nM in assay [5]; 0.68 ± 0.12 nM in assay [6]. Moreover, the “Reduction in inhibitory activity (virus neutralization) by combination of E484K and N501N” value in assay [7] was “approximately three”.
Regarding `CC[C@H](C)[C@H](NC(=O)[C@H](CC(C)C)NC(=O)[C@H](CC(=O)O)NC(=O)[C@H](CO)NC(=O)[C@@H](NC(=O)[C@H](CCCNC(=N)N)NC(=O)[C@H](CCSC)NC(=O)[C@H](CO)NC(=O)[C@H](C)NC(=O)[C@H](CCC(=O)O)NC(=O)[C@H](C)NC(=O)[C@H](Cc1c[nH]cn1)NC(=O)CNC(=O)[C@H](CC(C)C)NC(=O)[C@H](CCC(=O)O)NC(=O)[C@H](CC(=O)O)NC(=O)[C@H](CC(C)C)NC(=O)[C@H](CC(C)C)NC(=O)[C@H](CCCNC(=N)N)NC(=O)[C@H](CCSC)NC(=O)[C@@H](NC(=O)[C@H](CCC(=O)O)NC(=O)[C@H](Cc1ccc(O)cc1)NC(=O)[C@@H](NC(=O)[C@H](CCCCN)NC(=O)[C@H](CCC(N)=O)NC(=O)[C@H](CC(C)C)NC(=O)[C@@H](NC(=O)[C@H](Cc1c[nH]c2ccccc12)NC(=O)[C@H](CCC(=O)O)NC(=O)[C@H](CCCCN)NC(=O)[C@H](CC(=O)O)NC(=O)COCCOCCNC(=O)COCCOCCNC(=O)CCCC[C@@H]1SC[C@@H]2NC(=O)N[C@@H]21)[C@@H](C)CC)[C@@H](C)CC)[C@@H](C)CC)C(C)C)C(=O)N[C@@H](Cc1ccc(O)cc1)C(=O)N[C@@H](CCC(=O)O)C(=O)N[C@@H](Cc1ccccc1)C(=O)N[C@@H](CCSC)C(=O)N[C@@H](CCCCN)C(=O)N[C@@H](CCCCN)C(=O)NCC(=O)N[C@@H](CC(=O)O)C(=O)N[C@@H](CCC(=O)O)C(=O)N[C@@H](CCCNC(=N)N)C(=O)N[C@@H](CC(C)C)C(=O)N[C@@H](CC(C)C)C(=O)N[C@@H](CCC(=O)O)C(=O)N[C@@H](CCC(=O)O)C(=O)N[C@@H](C)C(=O)N[C@@H](CCC(=O)O)C(=O)N[C@@H](CCCNC(=N)N)C(=O)N[C@@H](CC(C)C)C(=O)N[C@@H](CC(C)C)C(=O)N[C@@H](CCC(=O)O)C(=O)N[C@@H](CCC(=O)O)C(=O)N[C@H](C(=O)N[C@@H](CCC(=O)O)C(N)=O)C(C)C` [LW25.3], the IC50 in assay [1] was 13.3 ± 4.55 nM; in assay [3], 5.94 ± 4.17 nM; in assay [4] it was more than 500 nM; in assay [5], more than 500 nM; in assay [6], 4.52 ± 0.43 nM.
In the case of `CC[C@H](C)[C@H](NC(=O)[C@H](CC(C)C)NC(=O)[C@H](CC(=O)O)NC(=O)[C@H](CO)NC(=O)[C@@H](NC(=O)[C@H](CCCNC(=N)N)NC(=O)[C@H](CCSC)NC(=O)[C@H](CO)NC(=O)[C@H](C)NC(=O)[C@H](CCC(=O)O)NC(=O)[C@H](C)NC(=O)[C@H](Cc1c[nH]cn1)NC(=O)CNC(=O)[C@H](CC(C)C)NC(=O)[C@H](CCC(=O)O)NC(=O)[C@H](CC(=O)O)NC(=O)[C@H](CC(C)C)NC(=O)[C@H](CC(C)C)NC(=O)[C@H](CCCNC(=N)N)NC(=O)[C@H](CCSC)NC(=O)[C@@H](NC(=O)[C@H](CCC(=O)O)NC(=O)[C@H](Cc1ccc(O)cc1)NC(=O)[C@@H](NC(=O)[C@H](CCCCN)NC(=O)[C@H](CCC(N)=O)NC(=O)[C@H](CC(C)C)NC(=O)[C@@H](NC(=O)[C@H](Cc1c[nH]c2ccccc12)NC(=O)[C@H](CCC(=O)O)NC(=O)[C@H](CCCCN)NC(=O)[C@H](CC(=O)O)NC(=O)COCCOCCNC(=O)CCCC[C@@H]1SC[C@@H]2NC(=O)N[C@@H]21)[C@@H](C)CC)[C@@H](C)CC)[C@@H](C)CC)C(C)C)C(=O)N[C@@H](Cc1ccc(O)cc1)C(=O)N[C@@H](CCC(=O)O)C(=O)N[C@@H](Cc1ccccc1)C(N)=O` [LW32.4], the IC50 in assay [1] was more than 500 nM; in assay [2], […]; in assay [3], 11.8 ± 3.5 nM; in assay [4], more than 500 nM; in assay [5], more than 500 nM; in assay [6] it was 10.2 ± 1.78 nM.

(Values after article PMC9181698 (International Journal of Molecular Sciences, 2022).)
